Values joined by “and” are separate entries in the source; they are usually repeats but may differ in a detail not shown here. Identical values can stand only once. Active and inactive are the calls of the source.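 How the source made its calls: active means fitted curve reaches a 40% rise in lysis activity at or below the top valid tested dose; inconclusive means flat curve holding a 30 to 70% rise, or poor fit; inactive means signal moving opposite to the expected rise, and the rest.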
tested on: not listed separately; assay: fungal lysis via adenylate kinase leakage – AK release luminescence, dry powder, dose response (AID 743159); details: Cryptococcus neoformans lysis, adenylate kinase release luminescence, 4 h; at 15 µM (top of the series)

Row | Structure (SMILES) | lysis activity increase
1 | O=c1[nH]c2ccccc2n1CCOc1ccccc1 | -3.24% (inactive) and 10.6% (inactive)
2 | CCOC(=O)c1c(-c2ccc(F)cc2)csc1NC(=O)CN1CCN(CC)CC1 | 20.2% (inactive)
3 | CCOC(=O)c1c(NC(=O)CN2CCN(C)CC2)sc(C)c1-c1ccc(C)cc1 | -2.55% (inactive)
4 | CCOC(=O)c1c(NC(=O)CNCCN(C)C)sc(C)c1-c1ccccc1 | 16.9% (inactive)
5 | Cc1ccc(OCCn2c(SCCO)nc3ccccc32)c(C(C)C)c1 | 18.7% (inactive)
6 | CCOC(=O)c1c(-c2ccc(OC)cc2)csc1NC(=O)CN(C)CC(=O)N(C)C | -2.9% (inactive)

tested on: Cryptococcus neoformans lysis, adenylate kinase release luminescence, 4 h; assay: as above; details: not given

Row | Structure (SMILES) | AC40
7 | Cc1ccc(OCCn2cnc3ccccc32)cc1 | 2860 nM
8 | Fc1ccccc1OCCn1c(=S)[nH]c2ccccc21 | 1770 nM
9 | CCOC(=O)c1c(-c2ccc(-c3ccccc3)cc2)csc1NC(=O)CNCCN(C)C | 6640 nM
10 | Cc1ccc2c(c1)[nH]c(=S)n2CCOc1ccccc1 | 211 nM
11 | COC(=O)C1=C(C)N(Cc2ccc(Br)cc2)C(=S)NC1c1ccc(OC)cc1 (stereo not given) | 925 nM
12 | Cc1cccc(OCCn2c(=S)[nH]c3cc(C(F)(F)F)ccc32)c1 | 352 nM
13 | Fc1cccc2c1[nH]c(=S)n2CCOc1ccccc1 | 1500 nM
14 | COC(=O)C1=C(C)N(Cc2ccc(F)cc2)C(=S)NC1c1cccc(F)c1 (stereo not given) | 2300 nM
15 | Cc1ccc(OCCn2c(C)nc3ccccc32)cc1 | 1480 nM
16 | CCOC(=O)c1c(-c2ccc(C(C)(C)C)cc2)csc1NC(=O)CN1CCN(C)CC1 | 6330 nM
17 | S=c1[nH]c2cccc(Cl)c2n1CCOc1ccccc1 | 851 nM
18 | c1ccc(OCCn2cnc3ccccc32)cc1 | > 15000 nM (inactive)
19 | CCOC(=O)c1c(-c2ccc(F)cc2)csc1NC(=O)CN1CCN(C)CC1 | > 15000 nM (inactive)
20 | S=c1[nH]c2ccccc2n1CCOc1ccccc1 | 1630 nM
21 | COC(=O)C1=C(C)N(Cc2ccc(Br)cc2)C(=S)NC1c1ccc(F)cc1 (stereo not given) | 681 nM
22 | COC(=O)C1=C(C)N(Cc2ccccc2)C(=S)NC1c1ccc(Br)cc1 (stereo not given) | 1810 nM
23 | COC(=O)C1=C(C)N(Cc2ccc(Cl)cc2)C(=S)NC1c1ccc(Br)cc1 (stereo not given) | 454 nM
24 | Cc1ccc(C(C)C)c(OCCn2c(=S)[nH]c3ccccc32)c1 | 232 nM
25 | CCOc1ccc(OCCn2c(=S)[nH]c3ccccc32)cc1 | 880 nM
26 | Cc1ccccc1OCCn1c(=S)[nH]c2ccccc21 | 596 nM
27 | Cc1ccc(OCCn2c(=S)[nH]c3ccccc32)cc1 | 703 nM
28 | CCOC(=O)c1c(-c2ccc(C(C)(C)C)cc2)csc1NC(=O)CN1CCN(CC)CC1 | 6310 nM
29 | S=c1[nH]c2ccccc2n1CCOc1ccc(Cl)cc1 | 270 nM
30 | Cc1ccc(OCCn2c(=S)[nH]c3ccccc32)c(C(C)C)c1 | 334 nM and 155 nM

Reference: PubChem BioAssay AID743159 (Broad Institute, 2013)
